Reference: PubChem BioAssay AID248 (DTP/NCI, 2004)
“And” between values parts separate entries of the source, which are not always exact repeats. Identical values can stand only once. Inconclusive results and toxic doses are left out. Rule as the data show it: active = T/C of 150% or more; inactive = T/C below 125%.

System: L1210 leukemia ip in BDF1 mice, survival T/C
Assay: NCI In Vivo Anticancer Drug Screen. Data for tumor model L1210 Leukemia (intraperitoneal) in B6D2F1 (BDF1) mice
Details: higher = longer survival
How it was run: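 Mice bearing the transplanted tumor received compound or vehicle. Survival of the treated group was divided by that of the vehicle-treated control group to give the ratio.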

[1] = endpoint: mean survival time, dose: 100.0 mg/kg/injection, schedule: Q04DX003 (ip), vehicle: saline with Tween-80
[2] = endpoint: mean survival time, dose: 200.0 mg/kg/injection, schedule: Q04DX003 (ip), vehicle: saline with Tween-80
[3] = endpoint: mean survival time, dose: 100.0 mg/kg/injection, schedule: Q01DX009 (ip), vehicle: saline sonified
[4] = endpoint: mean survival time, dose: 100.0 mg/kg/injection, schedule: Q04DX003 (ip), vehicle: Klucel (hydroxypropylcellulose) (HPC)
[5] = endpoint: mean survival time, dose: 200.0 mg/kg/injection, schedule: Q01DX009 (ip), vehicle: saline sonified
[6] = endpoint: mean survival time, dose: 6.25 mg/kg/injection, schedule: Q01DX009 (ip), vehicle: saline with Tween-80
[7] = endpoint: mean survival time, dose: 12.5 mg/kg/injection, schedule: Q01DX009 (ip), vehicle: saline with Tween-80
[8] = endpoint: mean survival time, dose: 50.0 mg/kg/injection, schedule: Q04DX003 (ip), vehicle: Klucel (hydroxypropylcellulose) (HPC)

Measured: T/C

CN(C)c1ccc(C(=O)c2ccc(N(C)C)cc2)cc1
inactive: [1] 93 % of control | [2] 88 % of control | endpoint: mean survival time, dose: 400.0 mg/kg/injection, schedule: Q04DX003 (ip), vehicle: saline with Tween-80 97 % of control

O=C1c2ccccc2C(=O)N1CNc1ccc(Oc2ccc(Cl)cc2)cc1
inactive: endpoint: mean survival time, dose: 100.0 mg/kg/injection, schedule: Q01DX009 (ip), vehicle: saline with Tween-80 93 % of control | endpoint: mean survival time, dose: 200.0 mg/kg/injection, schedule: Q01DX009 (ip), vehicle: saline with Tween-80 93 % of control

O=C(O)c1ccc(C(Cl)(Cl)Cl)cc1
inactive: endpoint: mean survival time, dose: 50.0 mg/kg/injection, schedule: Q01DX009 (ip), vehicle: saline sonified 96 % of control | [3] 115 % of control | [4] 102 % of control | [5] 118 % of control | endpoint: mean survival time, dose: 200.0 mg/kg/injection, schedule: Q04DX003 (ip), vehicle: Klucel (hydroxypropylcellulose) (HPC) 94 % of control

Nc1ccc(CCCCc2ccccc2)cc1Cl
inactive: [1] 100 % of control | [2] 100 % of control

CN=C([Se])NC
inactive: endpoint: mean survival time, dose: 3.13 mg/kg/injection, schedule: Q01DX009 (ip), vehicle: saline with Tween-80 106 % of control | endpoint: mean survival time, dose: 3.13 mg/kg/injection, schedule: Q04DX002 (ip), vehicle: saline with Tween-80 98 % of control | [6] 103 % of control | endpoint: mean survival time, dose: 6.25 mg/kg/injection, schedule: Q04DX002 (ip), vehicle: saline with Tween-80 95 % of control | [7] 97 % of control | endpoint: mean survival time, dose: 12.5 mg/kg/injection, schedule: Q04DX002 (ip), vehicle: saline with Tween-80 87 % of control

CCCCCCCCCCCCn1cnc2c(=S)nc[nH]c21
inactive: endpoint: mean survival time, dose: 12.5 mg/kg/injection, schedule: Q01DX005 (ip), vehicle: other 106 % of control | endpoint: mean survival time, dose: 25.0 mg/kg/injection, schedule: Q01DX005 (ip), vehicle: other 101 % of control | endpoint: mean survival time, dose: 50.0 mg/kg/injection, schedule: Q01DX005 (ip), vehicle: other 100 % of control | endpoint: mean survival time, dose: 100.0 mg/kg/injection, schedule: Q01DX005 (ip), vehicle: other 106 % of control | endpoint: mean survival time, dose: 200.0 mg/kg/injection, schedule: Q01DX005 (ip), vehicle: other 89 % of control

COc1cc2c(cc1OC)/C(=N/N)CCC2
inactive: [8] 95 % of control

CC(=O)OC1(C)CC(C)C(=O)C(C(O)CC2CC(=O)NC(=O)C2)C1 (centres undefined)
inactive: endpoint: mean survival time, dose: 0.05 mg/kg/injection, schedule: Q01DX009 (ip), vehicle: saline with Tween-80 108 % of control | endpoint: mean survival time, dose: 0.06 mg/kg/injection, schedule: Q01DX009 (ip), vehicle: water 107 % of control | endpoint: mean survival time, dose: 0.1 mg/kg/injection, schedule: Q01DX009 (ip), vehicle: saline with Tween-80 114 % of control | endpoint: mean survival time, dose: 0.12 mg/kg/injection, schedule: Q01DX009 (ip), vehicle: saline 117 % of control | endpoint: mean survival time, dose: 0.15 mg/kg/injection, schedule: Q01DX009 (ip), vehicle: saline with Tween-80 91 % of control | endpoint: mean survival time, dose: 0.15 mg/kg/injection, schedule: Q01DX009 (ip), vehicle: saline 120 % of control | endpoint: mean survival time, dose: 0.2 mg/kg/injection, schedule: Q01DX009 (ip), vehicle: saline with Tween-80 120 % of control | endpoint: mean survival time, dose: 0.25 mg/kg/injection, schedule: Q01DX009 (ip), vehicle: saline 109 % of control | endpoint: mean survival time, dose: 0.3 mg/kg/injection, schedule: Q01DX009 (ip), vehicle: saline 118 % of control | endpoint: mean survival time, dose: 0.5 mg/kg/injection, schedule: Q01DX009 (ip), vehicle: saline 96 % of control | endpoint: mean survival time, dose: 0.5 mg/kg/injection, schedule: Q01DX009 (ip), vehicle: water 108 % of control | endpoint: mean survival time, dose: 0.5 mg/kg/injection, schedule: Q04DX003 (ip), vehicle: water 108 % of control | endpoint: mean survival time, dose: 1.0 mg/kg/injection, schedule: Q01DX009 (ip), vehicle: water 100 % of control | endpoint: mean survival time, dose: 1.0 mg/kg/injection, schedule: Q04DX003 (ip), vehicle: saline 115 % of control | endpoint: mean survival time, dose: 1.0 mg/kg/injection, schedule: Q04DX003 (ip), vehicle: water 109 % of control | endpoint: mean survival time, dose: 1.2 mg/kg/injection, schedule: Q01DX009 (ip), vehicle: saline 115 % of control | endpoint: mean survival time, dose: 2.0 mg/kg/injection, schedule: Q01DX001 (ip), vehicle: saline 102 % of control | endpoint: mean survival time, dose: 2.0 mg/kg/injection, schedule: Q04DX003 (ip), vehicle: saline 116 % of control | endpoint: mean survival time, dose: 2.0 mg/kg/injection, schedule: Q04DX003 (ip), vehicle: water 108 % of control | endpoint: mean survival time, dose: 2.0 mg/kg/injection, schedule: Q08DX002 (ip), vehicle: saline 102 % of control | endpoint: mean survival time, dose: 4.0 mg/kg/injection, schedule: Q01DX001 (ip), vehicle: saline 100 % of control | endpoint: mean survival time, dose: 4.0 mg/kg/injection, schedule: Q04DX003 (ip), vehicle: saline 114 % of control | endpoint: mean survival time, dose: 4.0 mg/kg/injection, schedule: Q04DX003 (ip), vehicle: water 100 % of control | endpoint: mean survival time, dose: 4.0 mg/kg/injection, schedule: Q08DX002 (ip), vehicle: saline 98 % of control | endpoint: mean survival time, dose: 8.0 mg/kg/injection, schedule: Q01DX001 (ip), vehicle: saline 109 % of control | endpoint: mean survival time, dose: 8.0 mg/kg/injection, schedule: Q08DX002 (ip), vehicle: saline 100 % of control | endpoint: mean survival time, dose: 62.5 micrograms/kg/injection, schedule: Q01DX009 (ip), vehicle: saline 115 % of control | endpoint: mean survival time, dose: 125.0 micrograms/kg/injection, schedule: Q01DX009 (ip), vehicle: saline 123 % of control | endpoint: mean survival time, dose: 125.0 micrograms/kg/injection, schedule: Q03HX008 (ip), vehicle: saline 104 % of control | endpoint: mean survival time, dose: 125.0 micrograms/kg/injection, schedule: Q03HX016 (ip), vehicle: saline 123 % of control | endpoint: mean survival time, dose: 250.0 micrograms/kg/injection, schedule: Q01DX009 (ip), vehicle: saline 101 % of control | endpoint: mean survival time, dose: 250.0 micrograms/kg/injection, schedule: Q03HX008 (ip), vehicle: saline 112 % of control | endpoint: median survival time, dose: 1.0 mg/kg/injection, schedule: Q04DX003 (ip), vehicle: saline 103 % of control | endpoint: median survival time, dose: 2.0 mg/kg/injection, schedule: Q04DX003 (ip), vehicle: saline 105 % of control | endpoint: median survival time, dose: 4.0 mg/kg/injection, schedule: Q04DX003 (ip), vehicle: saline 106 % of control | endpoint: median survival time, dose: 8.0 mg/kg/injection, schedule: Q04DX003 (ip), vehicle: saline 114 % of control

C/C(=C\CN1C(=O)CCCC1=O)CCC(=O)O
inactive: endpoint: mean survival time, dose: 100.0 mg/kg/injection, schedule: Q01DX009 (ip), vehicle: other 90 % of control | endpoint: mean survival time, dose: 100.0 mg/kg/injection, schedule: Q04DX003 (ip), vehicle: other 102 % of control | endpoint: mean survival time, dose: 200.0 mg/kg/injection, schedule: Q01DX009 (ip), vehicle: other 98 % of control | endpoint: mean survival time, dose: 200.0 mg/kg/injection, schedule: Q04DX003 (ip), vehicle: other 91 % of control | endpoint: mean survival time, dose: 400.0 mg/kg/injection, schedule: Q01DX009 (ip), vehicle: other 93 % of control | endpoint: mean survival time, dose: 400.0 mg/kg/injection, schedule: Q04DX003 (ip), vehicle: other 93 % of control

COC(=O)C1CCCN1C(=O)C1CSC(C)(C)N1C=O (centres undefined)
inactive: endpoint: mean survival time, dose: 100.0 mg/kg/injection, schedule: Q04DX003 (ip), vehicle: saline 103 % of control | endpoint: mean survival time, dose: 200.0 mg/kg/injection, schedule: Q04DX003 (ip), vehicle: saline 92 % of control | endpoint: mean survival time, dose: 400.0 mg/kg/injection, schedule: Q04DX003 (ip), vehicle: saline 92 % of control

CCOC(=O)CNC(=O)C(CSSCC(NC(=O)OCc1ccccc1)C(=O)NCC(=O)OCC)NC(=O)OCc1ccccc1 (centres undefined)
inactive: endpoint: mean survival time, dose: 25.0 mg/kg/injection, schedule: Q04DX003 (ip), vehicle: Klucel (hydroxypropylcellulose) (HPC) 95 % of control | endpoint: mean survival time, dose: 50.0 mg/kg/injection, schedule: Q01DX009 (ip), vehicle: Klucel (hydroxypropylcellulose) (HPC) 100 % of control | [8] 104 % of control | endpoint: mean survival time, dose: 100.0 mg/kg/injection, schedule: Q01DX009 (ip), vehicle: Klucel (hydroxypropylcellulose) (HPC) 103 % of control | [4] 104 % of control and 90 % of control | endpoint: mean survival time, dose: 200.0 mg/kg/injection, schedule: Q01DX009 (ip), vehicle: Klucel (hydroxypropylcellulose) (HPC) 92 % of control

CC1(C)C2CCC1(CS(=O)(=O)O)C(=O)C2.[Ag] (centres undefined)
inactive: endpoint: mean survival time, dose: 3.12 mg/kg/injection, schedule: Q01DX009 (ip), vehicle: saline with Tween-80 92 % of control | [6] 87 % of control | [7] 90 % of control

CCCCCCCC/C=C\CCCCCCCC(=O)OCCCCCCCC
inactive: endpoint: mean survival time, dose: 100.0 mg/kg/injection, schedule: Q01DX001 (ip), vehicle: Klucel (hydroxypropylcellulose) (HPC) 97 % of control | [3] 102 % of control | endpoint: mean survival time, dose: 200.0 mg/kg/injection, schedule: Q01DX001 (ip), vehicle: Klucel (hydroxypropylcellulose) (HPC) 98 % of control | [5] 98 % of control | endpoint: mean survival time, dose: 400.0 mg/kg/injection, schedule: Q01DX001 (ip), vehicle: Klucel (hydroxypropylcellulose) (HPC) 92 % of control | endpoint: mean survival time, dose: 400.0 mg/kg/injection, schedule: Q01DX009 (ip), vehicle: saline sonified 105 % of control
